Article PMC5642494 (Oncotarget, 2017)

Experiments:
[1] = test system: pRb (Ser780); assay: High content imaging of Rb phosphorylation (Ser780), MDA-MB-361; type: cell-based; details: Homo sapiens, 16 hours, mean ± Stdev n = 2
Procedure: (§1) Relative IC50/EC50 values were determined by curve fitting to a four parameter logistic equation: Y = bottom + ((top-bottom)/ (1+exp(HillSlope*(X – LnIC50)), where X is the natural log of dose/concentration, Y is response, decreasing as X increases, top and bottom are plateaus in the same units as Y, lnIC50 is the natural log of potency, in the same log units as X, and HillSlope measures the steepness of the curve. Data were plotted using GraphPad Prism.
(§2) As controls, cells were treated with 10 µM palbociclib or vehicle ( 0.2 % v/v DMSO). Additional details for cell-based assays are provided in the Supplemental Methods. […]
(§3) www.impactjournals.com/oncotarget/ Oncotarget Supplementary Materials
(§4) Preclinical characterization of abemaciclib in hormone receptor […]
(§5) METHODS High content imaging cell-based assays for monitoring phosphorylation of Rb (ser780), G1 arrest and
(§6) Enzyme kinetics of CDK6/cyclin D3 complexes Cells were fixed with para-formaldehyde and Rb phosphorylation at Serine 780 was detected using CDK6/cyclin D3 activity was measured by the a primary mouse anti-Rb (PS780) antibody followed phosphorylation of CTRF using [g-33P] […] Plates were read in an kinase buffer containing 68 mM Hepes at pH 7.5, 6.67 mM Acumen Explorer eX3 (TTP Labtech). […]
(§7) (EDTA) was used to determine the level of background evaluated by measuring PI signal using high content 33P in the absence of enzyme activity. […]

[2] = test system: MCF7 cells; assay: Annexin V/PI flow cytometry, MCF7; type: cell-based, human; details: 3 DT (untreated 11.1%)
Procedure: Annexin V/PI staining was performed following the vendor’s specifications in MCF7 and MDA-MB-361 cells. […] Raw data were analyzed with FlowJo X software. Events were gated for debris exclusion and singlets selection. A minimum of 10,000 cells were analyzed per sample.

[3] = test system: MCF7 cells; assay: Ki-67 protein expression, MCF7; type: cell-based; details: Homo sapiens, 2 DT, read-out: EC50 Ki-67 levels
Procedure: as §1
After 72 hours, cells were stained with an anti-FOXM1 antibody and a secondary goat anti-rabbit IgG, Alexa Fluor® 488 conjugate; nuclei were stained with propidium iodide (PI). Alternatively, for assessment of Ki-67 levels, cells were treated for 2 DT and then stained with Ki-67 and a secondary goat anti-rabbit IgG, Alexa Fluor® 488 conjugate. Plates were read in an Acumen Explorer Ex3 (TTP Labtech) using Cellista software and the percentages of FOXM1 positive and Ki-67 positive cells were calculated over the background signal. Data were normalized in Excel using the mean value obtained from treatment with 2 µM BEZ235 as the minimum and the mean value obtained from treatment with 0.2% DMSO as the maximum.

[4] = test system: pRb (Ser780); assay: High content imaging of Rb phosphorylation (Ser780), MCF7; type: cell-based; details: Homo sapiens, mean ± Stdev n = 2
Procedure: as §1, §2, §3, §4, §5, §6, §7

CCN1CCN(Cc2ccc(Nc3ncc(F)c(-c4cc(F)c5nc(C)n(C(C)C)c5c4)n3)nc2)CC1 [abemaciclib, Abemaciclib]
IC50 [1]: 67 ± 37 nM | cells positive for annexin V ([2]; 0.5 µM): 41.4% | cells positive for annexin V ([2]; 2 µM): 66.7% | EC50 [3]: 42.1 nM | IC50 [4]: 13 ± 2 nM
